Measured values reported in patent US20220193063A1, “METABOLITES OF GLP1R AGONISTS” (Pfizer Inc., priority 2020, published 2022).

Columns and labels:
[1] = system: Male CD-1 mouse hepatocytes; assay: In vitro metabolism of Compound 1 in mouse cryopreserved hepatocytes; assay type: in vitro ADME; conditions: 10 μM Compound 1, 7.5×10^5 cells/mL, 1 and 4 hrs composite sample, HPLC/UV/MS
Experimental: (§1) Male CD-1 mouse hepatocytes (lot YHL), male Wistar-Han rat hepatocytes (Celsis; product number: M000065; lot: SLA), female New Zealand rabbit hepatocytes (lot 1510147), male cryopreserved cynomolgus monkey hepatocytes (Celsis; product number: M00305; lot: DNB) and mixed-gender cryopreserved human hepatocytes (Bioreclamation; product number: S01988; lot: DCM) were obtained for the hepatocyte in-vitro assessments.
(§2) At time 0 hrs 550 μL aliquots were removed from incubations and quenched with 5 volumes of ACN containing 0.1% formic acid. At 1 and 4 hrs, 275 μL aliquots were removed and quenched as above; these were combined in the same tube to prepare a composite sample. For all hepatocyte experiments, samples were processed by centrifugation at 1900×g for 5 minutes, and then the supernatant was transferred to clean glass tubes and evaporated to dryness under a stream of N2 using a Turbovap at 37° C. Sample residues were reconstituted in mobile phase prior to analysis by HPLC/UV/MS^n.
(§3) Samples were analyzed by HPLC/UV/MS^n using a Thermo Orbitrap Elite mass spectrometer in conjunction with a Thermo Open Accela UHPLC system. A 3.0×150 mm, 2.5 μm Acquity CSH C18 HPLC column (Waters) was heated to 45° C. for separation of analytes. The mobile phase was a gradient of A): water containing 0.1% formic acid, and B): acetonitrile. The flow rate was 450 μL/min, and the following gradient program was utilized: […]
(§4) UV absorbance was monitored with a photo-diode array detector from 220-450 nm. The mass spectrometer was operated in positive-ion mode with a HESI ion source at a potential of 3.0 kV, and capillary and source heater temperatures of 380 and 300° C., respectively. Sheath, auxiliary, and sweep gas flows were set to 45, 10, and 2 units, respectively. Full scan mass spectra were acquired over the range 120-1200 m/z at a resolving power of 30,000 (specified at m/z 400). Data-dependent MS^n spectra were acquired in an automated fashion at 15,000 resolving power using CID and HCD fragmentation with normalized collision energy settings of 28 and 65 V, respectively.
(§5) Metabolites were characterized by comparisons of mass spectral fragmentation patterns with that of a Compound 1 standard. All HPLC/UV/MS^n data were processed using Xcalibur v. 2.2, and integrated UV peak areas were subjected to weighted UV binning procedures utilizing an Excel template.

[2] = system: male Wistar-Han rat hepatocytes; assay: In vitro metabolism of Compound 1 in rat cryopreserved hepatocytes; assay type: in vitro ADME; conditions: 10 μM Compound 1, 7.5×10^5 cells/mL, 1 and 4 hrs composite sample, HPLC/UV/MS
Experimental: as §1, §2, §3, §4, §5

[3] = system: female New Zealand rabbit hepatocytes; assay: In vitro metabolism of Compound 1 in rabbit cryopreserved hepatocytes; assay type: in vitro ADME; conditions: 10 μM Compound 1, 7.5×10^5 cells/mL, 1 and 4 hrs composite sample, HPLC/UV/MS
Experimental: as §1, §2, §3, §4, §5

[4] = system: male cryopreserved cynomolgus monkey hepatocytes; assay: In vitro metabolism of Compound 1 in monkey cryopreserved hepatocytes; assay type: in vitro ADME; conditions: 10 μM Compound 1, 7.5×10^5 cells/mL, 1 and 4 hrs composite sample, HPLC/UV/MS
Experimental: as §1, §2, §3, §4, §5

[5] = system: mixed-gender cryopreserved human hepatocytes; assay: In vitro metabolism of Compound 1 in human cryopreserved hepatocytes; assay type: in vitro ADME; conditions: 10 μM Compound 1, 7.5×10^5 cells/mL, 1 and 4 hrs composite sample, HPLC/UV/MS
Experimental: as §1, §2, §3, §4, §5

[6] = system: human co-cultured hepatocytes (Hepatopack); assay: In vitro metabolism of Compound 1 in human micropatterned co-cultured hepatocytes (Hepatopack); assay type: in vitro ADME; conditions: Compound 1 tris salt 20 μM, human MPCC hepatocytes, 0, 2 and 7 days
Source text: Micro-patterned co-cultured (MPCC) hepatocyte 24-well plates containing human donors (16 wells each) were provided by Ascendance Biotechnology (formerly Hepregen Corp. (Medford, Mass.). [see Wang W W W, Khetani S R, Krzyzewski S, et al. Assessment of a Micropatterned Hepatocyte Coculture System to Generate Major Human Excretory and Circulating Drug Metabolites. Drug Metab Dispos 2010; 38(10):1900-51 The MPCCs were created at Ascendance Biotechnology and maintained in serum containing medium for 5-6 days to allow for stabilization of the co-cultures prior to shipment. A mixed-gender cryopreserved pool of 10 human donors (X008001-P; lot YFA) was used to seed the plates and was purchased from BioreclamationlVT (Westbury, N.Y.). MPCC hepatocytes are plated with fibroblasts in a 1:3 ratio with ˜25,000 hepatocytes/well in a 24-well plate. 24-Well MPCC plates were shipped to Pfizer, fresh medium (400 μL/well) was applied and cultures were kept at 37° C. with […] and 95% relative humidity for two days. Micropatterned co-cultures containing pooled hepatocytes were allowed 7 days to fully stabilize with respect to liver-specific functions. […] At respective time points (0, 2, and 7 days), the culture medium was removed and mixed with 4 volumes of ACN, then stored frozen at −40° C. until samples could be analyzed. Samples were subsequently processed by the addition of 2.5 mL of 1:1 ACN:MeOH containing 0.1% formic acid. After vortexing, the samples were centrifuged at 1900×g for 5 min, then the supernatant was transferred to 15 mL conical tubes and evaporated under N2 using a Turbovap set at 37° C. The residues were reconstituted in mobile phase (5:95 v:v ACN:0.1% aqueous formic acid) prior to analysis by HPLC/UV/MS^n.
as §3
as §4, with “Data-dependent MS^n spectra were acquired in an automated fashion at 15,000 resolving power using CID and HCD fragmentation with normalized collision energy settings of 28 and 65 V, respectively.” left out

[7] = Circulating metabolites of Compound 1 in rat plasma following a 1.0 mg/kg IV bolus dose; assay type: in vivo; conditions: 1.0 mg/kg IV bolus dose of Compound 1, pooled plasma 0.033-24 hrs, male rats
Experimental: (§6) Plasma and bile samples were obtained from a bile duct cannulated rat experiment (Study PK-0111) in which a 1.0 mg/kg IV bolus dose was administered to fed male rats (N=3). No control plasma was available from this experiment.
Clin Pharmacol Ther 1981; 29(3):408-13]. The entire volume of each replicate Hamilton pool was combined to create a single pooled sample (576 μL) for analysis.
(§7) Pooled plasma and bile samples were extracted with ACN containing 0.1% formic acid, and after centrifugation at 1900×g, the supernatant was transferred to clean tubes and evaporated under N2 in a Turbovap set at 37° C. Residues were reconstituted in mobile phase (5:95 v:v ACN:0.1% aqueous formic acid) prior to analysis by HPLC/UV/MS^n.
as §3, §4, §5

[8] = Metabolites of Compound 1 in rat bile following a 1.0 mg/kg IV bolus dose (bile duct cannulated rat); assay type: in vivo; conditions: 1.0 mg/kg IV bolus dose of Compound 1, pooled bile 0-24 hrs, bile duct cannulated male rats
Experimental: as §6
Bile samples (0-3, 3-7, and 7-24 hrs) from individual animals were pooled in proportion to the amount collect in each interval. Then 0.5 mL of each individual pool was combined to prepare a composite sample for analysis.
as §7, §3, §4, §5

human GLP-1R = human GLP-1R (Homo sapiens, UniProt P43220, L260F); assay: CHO GLP-1R Clone C6 - Assay 2 (HTRF cAMP agonist assay, low receptor density)
Sequence of human GLP-1R (P43220 24-463 L260F): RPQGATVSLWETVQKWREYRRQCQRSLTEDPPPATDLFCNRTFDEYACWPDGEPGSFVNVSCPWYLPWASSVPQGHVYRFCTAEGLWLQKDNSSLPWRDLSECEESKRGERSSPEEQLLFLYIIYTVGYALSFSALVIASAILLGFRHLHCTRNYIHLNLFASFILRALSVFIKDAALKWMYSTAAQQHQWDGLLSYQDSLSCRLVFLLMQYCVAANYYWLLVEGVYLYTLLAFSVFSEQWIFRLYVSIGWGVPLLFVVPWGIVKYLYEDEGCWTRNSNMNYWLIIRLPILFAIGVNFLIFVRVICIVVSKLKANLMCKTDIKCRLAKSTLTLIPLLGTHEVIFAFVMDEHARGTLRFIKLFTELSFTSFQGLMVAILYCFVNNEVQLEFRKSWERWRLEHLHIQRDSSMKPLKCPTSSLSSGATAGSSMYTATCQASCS
Experimental: GLP-1R-mediated agonist activity was determined with a cell-based functional assay utilizing an HTRF (Homogeneous Time-Resolved Fluorescence) cAMP detection kit (cAMP HI Range Assay Kit; Cis Bio cat #62AM6PEJ) that measures cAMP levels in the cell. The method is a competitive immunoassay between native cAMP produced by the cells and exogenous cAMP labeled with the dye d2. The tracer binding is visualized by a mAb anti-cAMP labeled with Cryptate. The specific signal (i.e. energy transfer) is inversely proportional to the concentration of cAMP in either a standard or an experimental sample. […]
After 48 hours, the growth media was removed from the assay plate wells, and the cells were treated with 20 μL of the serially diluted compound in assay buffer for 30 minutes at 37° C. in a humidified environment (95% O2, 5% CO2). […] The plates were then incubated at room temperature and after 60 minutes, changes in the HTRF signal were read with an Envision 2104 multi-label plate reader using excitation of 330 nm and emissions of 615 and 665 nm. Raw data were converted to nM cAMP by interpolation from a cAMP standard curve (as described in the manufacturer's assay protocol) and the percent effect was determined relative to a saturating concentration of the full agonist GLP-1 (1 μM) included on each plate. […]

metabolite of Compound 1 observed in mouse hepatocyte incubations [1]: observed | metabolite of Compound 1 observed in rat hepatocyte incubations [2]: observed | metabolite of Compound 1 observed in rabbit hepatocyte incubations [3]: observed | metabolite of Compound 1 observed in monkey hepatocyte incubations [4]: observed | metabolite of Compound 1 observed in human hepatocyte incubations [5]: observed | metabolite of Compound 1 observed in human hepatocyte incubations ([5]; listed as m/z 751b): most abundant metabolites | metabolite of Compound 1 observed in human Hepatopack system [6]: most abundant metabolites | detected in rat plasma [7]: observed | detected in rat plasma ([7]; listed as m/z 751b): detected | detected in rat bile [8]: observed | detected in rat bile ([8]; listed as m/z 751b): detected | EC50 (human GLP-1R): 170 nM
SMILES: C[C@]1(c2ccc(Cl)cn2)Oc2cccc(C3CCN(Cc4nc5ccc(C(=O)O[C@@H]6O[C@H](C(=O)O)[C@@H](O)[C@H](O)[C@H]6O)cc5n4C[C@@H]4CCO4)CC3)c2O1 [Metabolite 751b]
